15 compounds from patent publication US20230093861A1, “RAPAMYCIN ANALOGS AS MTOR INHIBITORS” (Revolution Medicines, Inc., priority 2017, published 2023) can be followed below.

For one assay, the system named is P-P70S6K (T389). The assay can be described thus: Cell based AlphaLISA assay, inhibition of P-P70S6K (T389) (mTORC1 substrate phosphorylation) in MDA-MB-468 cells. Particulars: Homo sapiens, 4 h, AlphaLISA, two to four hours at 37° C., read-out: pIC50 for Inhibition of mTORC1 and mTORC2 Substrate Phosphorylation, P-P70S6K-(T389) (converted). In a few lines: (§1)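 IC50s come from control-normalized curve fits of duplicate Alpha signals. Cell lysates were probed with SureFire Ultra kits for mTORC1 substrates 4E-BP1 T37/46 and P70S6K T389 and mTORC2 substrate Akt S473 in MDA-MB-468 cells exposed to inhibitor.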
For orientation: In Alpha technology, singlet oxygen from a donor bead excites a nearby acceptor bead.

The test system of a further assay is P-4E-BP1 (T37/46). The assay can be described thus: Cell based AlphaLISA assay, inhibition of P-4E-BP1 (T37/46) (mTORC1 substrate phosphorylation) in MDA-MB-468 cells. Particulars: Homo sapiens, AlphaLISA, two to four hours at 37° C., read-out: pIC50 for Inhibition of mTORC1 and mTORC2 Substrate Phosphorylation, P-4E-BP1-(T37/46) (converted). In a few lines:
as §1

The subject of a further assay is P-Akt (S473). The assay can be described thus: Cell based AlphaLISA assay, inhibition of P-Akt (S473) (mTORC2 substrate phosphorylation) in MDA-MB-468 cells. Particulars: Homo sapiens, AlphaLISA, two to four hours at 37° C., read-out: pIC50 for Inhibition of mTORC1 and mTORC2 Substrate Phosphorylation, p-AKT 1/2/3 -(S473) (converted). In a few lines: as §1

SMILES strings stand for the structures. Where two headings read alike, the source gives them in different places.

Turning to `COC(=O)N[C@H]1C[C@@H]2CC[C@@H](C)[C@@](O)(O2)C(=O)C(=O)N2CCCC[C@H]2C(=O)O[C@H]([C@H](C)C[C@@H]2CC[C@@H](OCCCCc3cn(CCOCCOCCOCCOCCOCCOCCOCCOCCC(=O)NCCCCn4nc(-c5cnc6[nH]ccc6c5)c5c(N)ncnc54)nn3)[C@H](OC)C2)CC(=O)[C@H](C)/C=C(\C)[C@@H](O)[C@@H](OC)C(=O)[C@H](C)C[C@H](C)/C=C/C=C/C=C/1C` [Example 81], the IC50 was 1 to 10 nM with P-P70S6K (T389); 3.16 to 31.6 nM with P-4E-BP1 (T37/46) (MDA-MB-468, 4 h); 31.6 to 1000 nM in the assay with P-Akt (S473) (MDA-MB-468, 4 h).

For the compound `CO[C@H]1C[C@@H]2CC[C@@H](C)[C@@](O)(O2)C(=O)C(=O)N2CCCC[C@H]2C(=O)O[C@H]([C@H](C)C[C@@H]2CC[C@@H](OCCCCc3cn(CCOCCOCCOCCOCCOCCOCCOCCOCCC(=O)N(C)CCCCn4nc(-c5ccc6oc(N)nc6c5)c5c(N)ncnc54)nn3)[C@H](OC)C2)CC(=O)[C@H](C)/C=C(\C)[C@@H](O)[C@@H](OC)C(=O)[C@H](C)C[C@H](C)/C=C/C=C/C=C/1C` [Example 83], the IC50 is less than 1 nM in the assay with P-P70S6K (T389); less than 3.16 nM in the assay with P-4E-BP1 (T37/46) (MDA-MB-468, 4 h); less than 3.16 nM in the assay with P-Akt (S473) (MDA-MB-468, 4 h).

Consider `CO[C@H]1C[C@@H]2CC[C@@H](C)[C@@](O)(O2)C(=O)C(=O)N2CCCC[C@H]2C(=O)O[C@H]([C@H](C)C[C@@H]2CC[C@@H](OCCCCc3cn(CCOCCOCCOCCOCCOCCOCCC(=O)N(C)CCCCn4nc(-c5ccc6oc(N)nc6c5)c5c(N)ncnc54)nn3)[C@H](OC)C2)CC(=O)[C@H](C)/C=C(\C)[C@@H](O)[C@@H](OC)C(=O)[C@H](C)C[C@H](C)/C=C/C=C/C=C/1C` [Example 84], for which the IC50 in the assay on P-P70S6K (T389) is less than 1 nM; with P-4E-BP1 (T37/46) (MDA-MB-468, 4 h), less than 3.16 nM; in the assay with P-Akt (S473) (MDA-MB-468, 4 h), 3.16 to 31.6 nM.

In the case of `CO[C@H]1C[C@@H]2CC[C@@H](C)[C@@](O)(O2)C(=O)C(=O)N2CCCC[C@H]2C(=O)O[C@H]([C@H](C)C[C@@H]2CC[C@@H](OCCCCc3cn(CCOCCOCCOCCOCCOCCOCCOCCOCCC(=O)NCc4ccc(Cn5nc(-c6ccc7oc(N)nc7c6)c6c(N)ncnc65)cc4)nn3)[C@H](OC)C2)CC(=O)[C@H](C)/C=C(\C)[C@@H](O)[C@@H](OC)C(=O)[C@H](C)C[C@H](C)/C=C/C=C/C=C/1C` [Example 85], the IC50 is less than 1 nM in the assay with P-P70S6K (T389), less than 3.16 nM in the assay with P-4E-BP1 (T37/46) (4 h) and 3.16 to 31.6 nM in the assay with P-Akt (S473) (4 h).

Regarding `CO[C@H]1C[C@@H]2CC[C@@H](C)[C@@](O)(O2)C(=O)C(=O)N2CCCC[C@H]2C(=O)O[C@H]([C@H](C)C[C@@H]2CC[C@@H](OCCCCc3cn(CCOCCOCCOCCOCCOCCOCCC(=O)NCc4ccc(Cn5nc(-c6ccc7oc(N)nc7c6)c6c(N)ncnc65)cc4)nn3)[C@H](OC)C2)CC(=O)[C@H](C)/C=C(\C)[C@@H](O)[C@@H](OC)C(=O)[C@H](C)C[C@H](C)/C=C/C=C/C=C/1C` [Example 86], the IC50 in the assay with P-P70S6K (T389) is less than 1 nM; in the assay with P-4E-BP1 (T37/46) (MDA-MB-468, 4 h), less than 3.16 nM; in the assay with P-Akt (S473) (MDA-MB-468, 4 h), 3.16 to 31.6 nM.

As for `CO[C@H]1C[C@@H]2CC[C@@H](C)[C@@](O)(O2)C(=O)C(=O)N2CCCC[C@H]2C(=O)O[C@H]([C@H](C)C[C@@H]2CC[C@@H](O)[C@H](OC)C2)C[C@@H](O)[C@H](C)/C=C(\C)[C@@H](O)[C@@H](OC)C(=NOCc2cn(CCOCCOCCOCCOCCOCCOCCOCCOCCC(=O)N3CCc4cc(Cn5nc(-c6ccc7oc(N)nc7c6)c6c(N)ncnc65)ccc4C3)nn2)[C@H](C)C[C@H](C)/C=C/C=C/C=C/1C` [Example 87], the IC50 is less than 1 nM in the assay with P-P70S6K (T389); 3.16 to 31.6 nM with P-4E-BP1 (T37/46) (MDA-MB-468, 4 h); more than 1000 nM in the assay with P-Akt (S473) (MDA-MB-468, 4 h).

Consider `CO[C@H]1C[C@@H]2CC[C@@H](C)[C@@](O)(O2)C(=O)C(=O)N2CCCC[C@H]2C(=O)O[C@H]([C@H](C)C[C@@H]2CC[C@@H](OCCCCc3cn(CCOCCOCCOCCOCCOCCOCCOCCOCCC(=O)N4CCc5cc(Cn6nc(-c7ccc8oc(N)nc8c7)c7c(N)ncnc76)ccc5C4)nn3)[C@H](OC)C2)CC(=O)[C@H](C)/C=C(\C)[C@@H](O)[C@@H](OC)C(=O)[C@H](C)C[C@H](C)/C=C/C=C/C=C/1C` [Example 88], for which the values for the IC50 in the assay on P-P70S6K (T389), in the assay on P-4E-BP1 (T37/46) (4 h) and with P-Akt (S473) (4 h) were less than 1 nM, less than 3.16 nM and 3.16 to 31.6 nM, respectively.

With `CO[C@H]1C[C@@H]2CC[C@@H](C)[C@@](O)(O2)C(=O)C(=O)N2CCCC[C@H]2C(=O)O[C@H]([C@H](C)C[C@@H]2CC[C@@H](OCCCCc3cn(CCOCCOCCOCCOCCOCCOCCC(=O)N4CCc5cc(Cn6nc(-c7ccc8oc(N)nc8c7)c7c(N)ncnc76)ccc5C4)nn3)[C@H](OC)C2)CC(=O)[C@H](C)/C=C(\C)[C@@H](O)[C@@H](OC)C(=O)[C@H](C)C[C@H](C)/C=C/C=C/C=C/1C` [Example 89], the IC50 with P-P70S6K (T389) is less than 1 nM; with P-4E-BP1 (T37/46) (MDA-MB-468, 4 h), less than 3.16 nM; with P-Akt (S473) (MDA-MB-468, 4 h) it was 3.16 to 31.6 nM.

Turning to `CO[C@H]1C[C@@H]2CC[C@@H](C)[C@@](O)(O2)C(=O)C(=O)N2CCCC[C@H]2C(=O)O[C@H]([C@H](C)C[C@@H]2CC[C@@H](OCCCCc3cn(CCOCCOCCOCCOCCOCCOCCOCCOCCC(=O)N4CCC(Cn5nc(-c6ccc7oc(N)nc7c6)c6c(N)ncnc65)CC4)nn3)[C@H](OC)C2)CC(=O)[C@H](C)/C=C(\C)[C@@H](O)[C@@H](OC)C(=O)[C@H](C)C[C@H](C)/C=C/C=C/C=C/1C` [Example 90], the IC50 was less than 1 nM with P-P70S6K (T389), less than 3.16 nM in the assay on P-4E-BP1 (T37/46) (4 h) and less than 3.16 nM in the assay with P-Akt (S473) (4 h).

As for `CO[C@H]1C[C@@H]2CC[C@@H](C)[C@@](O)(O2)C(=O)C(=O)N2CCCC[C@H]2C(=O)O[C@H]([C@H](C)C[C@@H]2CC[C@@H](OCCCCc3cn(CCOCCOCCOCCOCCOCCOCCC(=O)N4CCC(Cn5nc(-c6ccc7oc(N)nc7c6)c6c(N)ncnc65)CC4)nn3)[C@H](OC)C2)CC(=O)[C@H](C)/C=C(\C)[C@@H](O)[C@@H](OC)C(=O)[C@H](C)C[C@H](C)/C=C/C=C/C=C/1C` [Example 91], the IC50 in the assay on P-P70S6K (T389) is less than 1 nM; in the assay with P-4E-BP1 (T37/46) (MDA-MB-468, 4 h) it was less than 3.16 nM; with P-Akt (S473) (MDA-MB-468, 4 h) it was less than 3.16 nM.

For `CO[C@H]1C[C@@H]2CC[C@@H](C)[C@@](O)(O2)C(=O)C(=O)N2CCCC[C@H]2C(=O)O[C@H]([C@H](C)C[C@@H]2CC[C@@H](OCCCCc3cn(CCOCCOCCOCCOCCOCCOCCOCCOCCC(=O)N4CCc5cc(Cn6nc(-c7ccc8oc(N)nc8c7)c7c(N)ncnc76)ccc5C4)nn3)[C@H](OC)C2)C[C@@H](OC)[C@H](C)/C=C(\C)[C@@H](O)[C@@H](OC)C(=O)[C@H](C)C[C@H](C)/C=C/C=C/C=C/1C` [Example 92], the IC50 in the assay on P-P70S6K (T389) is less than 1 nM; with P-4E-BP1 (T37/46) (4 h), 3.16 to 31.6 nM; in the assay with P-Akt (S473) (4 h), 31.6 to 1000 nM.

In the case of `CO[C@H]1C[C@@H]2CC[C@@H](C)[C@@](O)(O2)C(=O)C(=O)N2CCCC[C@H]2C(=O)O[C@H]([C@H](C)C[C@@H]2CC[C@@H](O)[C@H](OC)C2)C[C@@H](O)[C@H](C)/C=C(\C)[C@@H](O)[C@@H](OC)C(=NOCc2cn(CCOCCOCCOCCOCCOCCOCCC(=O)NCCCCn3nc(-c4cc5cc(O)ccc5[nH]4)c4c(N)ncnc43)nn2)[C@H](C)C[C@H](C)/C=C/C=C/C=C/1C` [Example 93], the IC50 with P-P70S6K (T389) was 1 to 10 nM; in the assay with P-4E-BP1 (T37/46) (MDA-MB-468, 4 h), 3.16 to 31.6 nM; with P-Akt (S473) (MDA-MB-468, 4 h), more than 1000 nM.

For `CO[C@H]1C[C@@H]2CC[C@@H](C)[C@@](O)(O2)C(=O)C(=O)N2CCCC[C@H]2C(=O)O[C@H]([C@H](C)C[C@@H]2CC[C@@H](O)[C@H](OC)C2)C[C@@H](O)[C@H](C)/C=C(\C)[C@@H](O)[C@@H](OC)C(=NOCc2cn(CCOCCOCCOCCOCCOCCOCCOCCOCCC(=O)NCCCCn3nc(-c4cc5cc(O)ccc5[nH]4)c4c(N)ncnc43)nn2)[C@H](C)C[C@H](C)/C=C/C=C/C=C/1C` [Example 94], the IC50 in the assay on P-P70S6K (T389) was 1 to 10 nM; in the assay on P-4E-BP1 (T37/46) (MDA-MB-468, 4 h), 3.16 to 31.6 nM; in the assay on P-Akt (S473) (MDA-MB-468, 4 h), more than 1000 nM.

Turning to `CO[C@H]1C[C@@H]2CC[C@@H](C)[C@@](O)(O2)C(=O)C(=O)N2CCCC[C@H]2C(=O)O[C@H]([C@H](C)C[C@@H]2CC[C@@H](OCCCCc3cn(CCOCCOCCOCCOCCOCCOCCOCCOCCC(=O)N4CCN(c5cc(-n6nc(-c7ccc8oc(N)nc8c7)c7c(N)ncnc76)ncn5)CC4)nn3)[C@H](OC)C2)CC(=O)[C@H](C)/C=C(\C)[C@@H](O)[C@@H](OC)C(=O)[C@H](C)C[C@H](C)/C=C/C=C/C=C/1C` [Example 95], the IC50 was less than 1 nM with P-P70S6K (T389); less than 3.16 nM in the assay with P-4E-BP1 (T37/46) (MDA-MB-468, 4 h); 3.16 to 31.6 nM in the assay on P-Akt (S473) (MDA-MB-468, 4 h).

On to `CO[C@H]1C[C@@H]2CC[C@@H](C)[C@@](O)(O2)C(=O)C(=O)N2CCCC[C@H]2C(=O)O[C@H]([C@H](C)C[C@@H]2CC[C@@H](OCCCCc3cn(CCOCCOCCOCCOCCOCCOCCOCCOCCC(=O)NCCS(=O)(=O)c4ccc(C(=O)N5CCOc6ccc(-c7ccc(N)nc7)cc6C5)c(C)c4F)nn3)[C@H](OC)C2)CC(=O)[C@H](C)/C=C(\C)[C@@H](O)[C@@H](OC)C(=O)[C@H](C)C[C@H](C)/C=C/C=C/C=C/1C` [Example 96], for which the IC50 in the assay with P-P70S6K (T389) was less than 1 nM; in the assay on P-4E-BP1 (T37/46) (MDA-MB-468, 4 h), less than 3.16 nM; with P-Akt (S473) (MDA-MB-468, 4 h), 3.16 to 31.6 nM.
